Experimental findings from patent publication US9873704B2, “Heterocyclic compounds and their uses” (Amgen Inc., priority 2009, dated 2018) are described below.

pKi: −log10 of the molar value.

In the assay the target is T1, PI3Kδ (Homo sapiens, UniProt O00329).
T1 construct: Full length p110 subunits of PI3k α, β and δ, N-terminally labeled with polyHis tag; polyHis (N); made in house; host or cells: Sf9 insect cells (baculovirus)
T1 sequence (O00329 whole entry): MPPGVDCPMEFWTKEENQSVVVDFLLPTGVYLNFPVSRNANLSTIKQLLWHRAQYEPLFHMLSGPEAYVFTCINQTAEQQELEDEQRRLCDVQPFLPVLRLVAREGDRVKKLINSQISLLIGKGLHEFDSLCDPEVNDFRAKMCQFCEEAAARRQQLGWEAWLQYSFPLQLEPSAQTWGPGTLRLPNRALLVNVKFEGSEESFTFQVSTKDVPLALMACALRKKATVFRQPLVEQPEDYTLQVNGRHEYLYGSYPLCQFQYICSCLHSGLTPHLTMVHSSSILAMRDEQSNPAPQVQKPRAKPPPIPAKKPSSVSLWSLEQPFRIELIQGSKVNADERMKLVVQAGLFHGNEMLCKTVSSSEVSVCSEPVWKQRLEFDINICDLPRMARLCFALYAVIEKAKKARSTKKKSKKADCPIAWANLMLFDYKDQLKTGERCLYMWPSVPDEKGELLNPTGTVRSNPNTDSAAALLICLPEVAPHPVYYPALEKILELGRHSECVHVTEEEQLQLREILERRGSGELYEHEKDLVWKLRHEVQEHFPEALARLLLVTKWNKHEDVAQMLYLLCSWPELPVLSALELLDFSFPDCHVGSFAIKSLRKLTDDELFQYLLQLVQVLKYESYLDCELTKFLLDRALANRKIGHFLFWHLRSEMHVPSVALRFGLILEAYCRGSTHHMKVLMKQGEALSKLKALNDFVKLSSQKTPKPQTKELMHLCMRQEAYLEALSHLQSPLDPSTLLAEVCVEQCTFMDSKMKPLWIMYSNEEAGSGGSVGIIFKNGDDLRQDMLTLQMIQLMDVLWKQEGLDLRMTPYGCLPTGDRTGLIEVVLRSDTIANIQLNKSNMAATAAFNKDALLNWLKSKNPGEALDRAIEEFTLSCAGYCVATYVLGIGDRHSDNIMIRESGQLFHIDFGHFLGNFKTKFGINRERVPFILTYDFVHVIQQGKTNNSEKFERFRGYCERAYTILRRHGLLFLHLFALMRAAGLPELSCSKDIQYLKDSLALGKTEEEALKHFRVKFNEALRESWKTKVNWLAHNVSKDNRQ
T1 sequence (P27986 whole entry partner): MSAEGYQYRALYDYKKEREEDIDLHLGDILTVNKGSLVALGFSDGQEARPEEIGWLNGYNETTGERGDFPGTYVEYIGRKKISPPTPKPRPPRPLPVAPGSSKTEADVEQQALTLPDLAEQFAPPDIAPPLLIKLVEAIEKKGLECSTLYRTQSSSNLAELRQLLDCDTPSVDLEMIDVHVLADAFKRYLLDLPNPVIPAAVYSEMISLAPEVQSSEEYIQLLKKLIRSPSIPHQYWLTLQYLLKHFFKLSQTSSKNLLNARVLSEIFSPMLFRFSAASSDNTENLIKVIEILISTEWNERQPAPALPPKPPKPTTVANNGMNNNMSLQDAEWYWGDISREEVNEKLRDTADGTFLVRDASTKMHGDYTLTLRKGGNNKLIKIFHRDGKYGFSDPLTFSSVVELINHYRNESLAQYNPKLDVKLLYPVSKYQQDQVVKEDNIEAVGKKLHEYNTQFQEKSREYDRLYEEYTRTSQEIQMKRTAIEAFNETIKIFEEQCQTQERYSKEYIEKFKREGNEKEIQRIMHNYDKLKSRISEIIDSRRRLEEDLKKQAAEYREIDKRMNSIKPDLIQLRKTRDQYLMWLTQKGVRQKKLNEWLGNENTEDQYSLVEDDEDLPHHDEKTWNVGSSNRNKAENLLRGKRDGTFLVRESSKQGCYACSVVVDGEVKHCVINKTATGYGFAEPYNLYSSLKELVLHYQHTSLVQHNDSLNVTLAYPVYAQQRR
Briefly: PI3Kδ Alphascreen assay. The class given is biochemical. The method, then:
Full length p110 subunits of PI3k α, β and δ, N-terminally labeled with polyHis tag, were coexpressed with p85 with Baculo virus expression vectors in sf9 insect cells. P110/p85 heterodimers were purified by sequential Ni-NTA, Q-HP, Superdex-100 chromatography. Purified α, β and δ isozymes were stored at −20° C. in 20 mM Tris, pH 8, 0.2M NaCl, 50% glycerol, 5 mM DTT, 2 mM Na cholate. […] The γ isozyme was purified by sequential Ni-NTA, Superdex-200, Q-HP chromatography. The γ isozyme was stored frozen at −80° C. in NaH2PO4, pH 8, 0.2M NaCl, 1% ethylene glycol, 2 mM β-mercaptoethanol.
A PI3K Alphascreen® assay (PerkinElmer, Waltham, Mass.) was used to measure the activity of a panel of four phosphoinositide 3-kinases: PI3Kα, PI3Kβ, PI3Kγ, and PI3Kδ. Enzyme reaction buffer was prepared using sterile water (Baxter, Deerfield, Ill.) and 50 mM Tris HCl pH 7, 14 mM MgCl2, 2 mM sodium cholate, and 100 mM NaCl. 2 mM DTT was added fresh the day of the experiment. The Alphascreen buffer was made using sterile water and 10 mM Tris HCl pH 7.5, 150 mM NaCl, 0.10% Tween 20, and 30 mM EDTA. 1 mM DTT was added fresh the day of the experiment. Compound source plates used for this assay were 384-well Greiner clear polypropylene plates containing test compounds at 5 mM and diluted 1:2 over 22 concentrations. Columns 23 and 24 contained only DMSO as these wells comprised the positive and negative controls, respectively. Source plates were replicated by transferring 0.5 uL per well into 384-well Optiplates (PerkinElmer, Waltham, Mass.).
Each PI3K isoform was diluted in enzyme reaction buffer to 2× working stocks. […] PI(4,5)P2 (Echelon Biosciences, Salt Lake City, Utah) was diluted to 10 μM and ATP was diluted to 20 μM. This 2× stock was used in the assays for PI3Kα and PI3Kβ. For assay of PI3Kγ and PI3Kδ, PI(4,5)P2 was diluted to 10 μM and ATP was diluted to 8 μM to prepare a similar 2× working stock. Alphascreen reaction solutions were made using beads from the anti-GST Alphascreen kit (PerkinElmer, Waltham, Mass.). Two 4× working stocks of the Alphascreen reagents were made in Alphascreen reaction buffer. In one stock, biotinylated-IP4 (Echelon Biosciences, Salt Lake City, Utah) was diluted to 40 nM and streptavidin-donor beads were diluted to 80 μg/mL. In the second stock, PIP3-binding protein (Echelon Biosciences, Salt Lake City, Utah) was diluted to 40 nM and anti-GST-acceptor beads were diluted to 80 μg/mL.
10 μL/well of the appropriate substrate 2× stock (containing 20 μM ATP for the PI3Kα and β assays and containing 8 μM ATP for the PI3Kγ and δ assays) was then added to Columns 1-24 of all plates. Plates were then incubated at room temperature for 20 minutes. In the dark, 10 μL/well of the donor bead solution was added to columns 1-24 of the plates to quench the enzyme reaction. The plates were incubated at room temperature for 30 minutes. Still in the dark, 10 μL/well of the acceptor bead solution was added to columns 1-24 of the plates. The plates were then incubated in the dark for 1.5 hours. The plates were read on an Envision multimode Plate Reader (PerkinElmer, Waltham, Mass.) using a 680 nm excitation filter and a 520-620 nm emission filter.
For orientation: Alpha assays give light when donor and acceptor beads are brought close together.
For orientation: pKi means the negative decadic logarithm of the Ki, by convention in mol/L. `CS(=O)(=O)c1ccccc1-c1cc2c(F)cccc2nc1CNc1ncnc(N)c1C#N` [4-Amino-6-((5-fluoro-3-(2-(methylsulfonyl)phenyl)quinolin-2-yl)methylamino)pyrimidine-5-carbonitrile] gave a pKi of 7.41.

The compound `N#Cc1c(N)ncnc1NCc1nc2cccc(F)c2cc1-c1cccc(F)c1` [4-Amino-6-((5-fluoro-3-(3-fluorophenyl)quinolin-2-yl)methylamino)pyrimidine-5-carbonitrile] showed a pKi of 6.99. This pKi lies 0.42 log units lower than the previous one.

As for `N#Cc1c(N)ncnc1NCc1nc2cccc(F)c2cc1-c1ccccn1` [4-Amino-6-((5-fluoro-3-(pyridin-2-yl)quinolin-2-yl)methylamino)pyrimidine-5-carbonitrile], the pKi was 6.86.

On to `N#Cc1c(N)ncnc1NCc1nc2cccc(F)c2cc1-c1ccccc1` [4-Amino-6-((5-fluoro-3-phenylquinolin-2-yl)methylamino)pyrimidine-5-carbonitrile], for which the pKi is 6.97.

For `CS(=O)(=O)c1ccccc1-c1cc2cccc(F)c2nc1CNc1ncnc(N)c1C#N` [4-Amino-6-((8-fluoro-3-(2-(methylsulfonyl)phenyl)quinolin-2-yl)methylamino)-pyrimidine-5-carbonitrile], the pKi is 7.51.

In turn, `N#Cc1c(N)ncnc1NCc1nc2c(F)cccc2cc1-c1ccccn1` [4-Amino-6-((8-fluoro-3-(pyridin-2-yl)quinolin-2-yl)methyl-amino)pyrimidine-5-carbonitrile] gave a pKi of 6.58.

As for `N#Cc1c(N)ncnc1NCc1nc2c(F)cccc2cc1-c1ccccc1` [4-Amino-6-((8-fluoro-3-phenylquinolin-2-yl)methylamino)pyrimidine-5-carbonitrile], the pKi is 7.91.

Take `COCCNc1c(-c2ccccc2)c([C@@H](C)Nc2ncnc(N)c2C#N)nc2ccc(F)cc12` [4-Amino-6-(((1R)-1-(6-fluoro-4-((2-methoxyethyl)amino)-3-phenyl-2-quinolinyl)ethyl)amino)-5-pyrimidinecarbonitrile]: the pKi is 7.21.

Regarding `C[C@H](Nc1ncnc(N)c1C#N)c1nc2cccc(Cl)c2cc1-c1ccccn1` [4-Amino-6-(((1S)-1-(5-chloro-3-(2-pyridinyl)-2-quinolinyl)ethyl)amino)-5-pyrimidinecarbonitrile], the pKi was 9.40. Against the preceding compound, the pKi is 2.19 log units higher.

Take `C[C@H](Nc1ncnc(N)c1C#N)c1nc2ccc(F)cc2c(NCCS(C)(=O)=O)c1-c1ccccc1` [4-Amino-6-(((1S)-1-(6-fluoro-4-((2-(methylsulfonyl)ethyl)amino)-3-phenyl-2-quinolinyl)ethyl)amino)-5-pyrimidinecarbonitrile]: the pKi was 9.65.

Regarding `COCCNc1c(-c2ccccc2)c([C@H](C)Nc2ncnc(N)c2C#N)nc2ccc(F)cc12` [4-Amino-6-(((1S)-1-(6-fluoro-4-((2-methoxyethyl)amino)-3-phenyl-2-quinolinyl)ethyl)amino)-5-pyrimidinecarbonitrile], the pKi was 9.21. Against the preceding compound, the pKi is 0.44 log units lower.

`CC(Nc1ncnc(N)c1C#N)c1nc2ccc(F)cc2c(C(=O)N2CCOCC2)c1-c1ccccc1` (stereo not shown) [4-Amino-6-((-1-(6-fluoro-4-(4-morpholinylcarbonyl)-3-phenyl-2-quinolinyl)-ethyl)amino)-5-pyrimidinecarbonitrile] showed a negative logarithm of the Ki (pKi) of 8.54.

`CC(Nc1ncnc(N)c1C#N)c1nc2ccc(F)cc2c(C(=O)N2CC[C@H](O)C2)c1-c1ccccc1` (stereo partly drawn) [4-Amino-6-((-1-(6-fluoro-4-(((3S)-3-hydroxy-1-pyrrolidinyl)carbonyl)-3-phenyl-2-quinolinyl)ethyl)amino)-5-pyrimidinecarbonitrile]: the pKi is 8.99.

In the case of `C[C@H](c1nc2ccc(F)cc2cc1-c1cncc(F)c1)n1nc(C#N)c2c(N)ncnc21` [4-amino-1-((R)-1-(6-fluoro-3-(5-fluoropyridin-3-yl)quinolin-2-yl)ethyl)-1H-pyrazolo[3,4-d]pyrimidine-3-carbonitrile], the pKi is 5.26.

Compound `CC(Nc1ncnc(N)c1C#N)c1nc2ccc(F)cc2c(N(C)C)c1-c1ccccn1` (stereo not shown) [4-amino-6-(1-(4-(dimethylamino)-6-fluoro-3-(pyridin-2-yl)quinolin-2-yl)ethylamino)pyrimidine-5-carbonitrile] had a negative-log Ki (pKi) of 8.85.

As for `CC(Nc1ncnc(N)c1C#N)c1nc2ccc(F)cc2c([S@@+]([O-])CCO)c1-c1ccccc1` (stereo partly drawn) [4-amino-6-(1-(6-fluoro-4-((S)-2-hydroxyethylsulfinyl)-3-phenylquinolin-2-yl)ethylamino)pyrimidine-5-carbonitrile], the pKi was 8.74.

With `CC(Nc1ncnc(N)c1C#N)c1nc2ccc(F)cc2c(CO)c1-c1ccccc1` (stereo not shown) [4-amino-6-(1-(6-fluoro-4-(hydroxymethyl)-3-phenylquinolin-2-yl)ethylamino)pyrimidine-5-carbonitrile], the pKi is 8.77.

`CC(Nc1ncnc(N)c1C#N)c1nc2ccc(F)cc2c(S(C)(=O)=O)c1-c1ccccc1` (stereo not shown) [4-amino-6-(1-(6-fluoro-4-(methylsulfonyl)-3-phenylquinolin-2-yl)ethylamino)pyrimidine-5-carbonitrile] had a pKi of 8.89.

`CC(Nc1ncnc(N)c1C#N)c1nc2ccc(F)cc2c(N2CCOCC2)c1-c1ccccn1` (stereo not shown) [4-amino-6-(1-(6-fluoro-4-morpholino-3-(pyridin-2-yl)quinolin-2-yl)ethyl-amino)pyrimidine-5-carbonitrile]: the pKi was 8.92.

Turning to `CSc1c(-c2ccccc2)c(C(C)Nc2ncnc(N)c2C#N)nc2ccc(F)cc12` (stereo not shown) [4-amino-6-((1-(6-fluoro-4-(methylsulfanyl)-3-phenyl-2-quinolinyl)ethyl)amino)-5-pyrimidinecarbonitrile], the pKi is 8.62.

On to `C[C@@H](Nc1ncnc(N)c1C#N)c1nc2cccc(Cl)c2cc1-c1ccccn1` [4-amino-6-(((1R)-1-(5-chloro-3-(2-pyridinyl)-2-quinolinyl)ethyl)amino)-5-pyrimidinecarbonitrile], for which the pKi was 7.24.

Regarding `C[C@@H](Nc1ncnc(N)c1C#N)c1nc2cccc(F)c2c(S(C)(=O)=O)c1-c1ccccc1` [4-amino-6-(((1R)-1-(5-fluoro-4-(methylsulfonyl)-3-phenyl-2-quinolinyl)ethyl)amino)-5-pyrimidinecarbonitrile], the pKi was 6.33.

For the compound `C[C@H](Nc1ncnc(N)c1C#N)c1nc2ccc(F)cc2c(C(=O)N2CCOCC2)c1-c1ccccc1` [4-amino-6-(((1S)-1-(6-fluoro-4-(4-morpholinylcarbonyl)-3-phenyl-2-quinolinyl)ethyl)amino)-5-pyrimidinecarbonitrile], the pKi is 9.30.

The compound `C[C@H](Nc1ncnc(N)c1C#N)c1nc2ccc(F)cc2c(C(=O)N2CC[C@H](O)C2)c1-c1ccccc1` [4-amino-6-(((1S)-1-(6-fluoro-4-(((3S)-3-hydroxy-1-pyrrolidinyl)carbonyl)-3-phenyl-2-quinolinyl)ethyl)amino)-5-pyrimidinecarbonitrile] showed a pKi of 9.18. This pKi and that of the compound before are within 0.2 log units of each other.

Compound `C[C@H](Nc1ncnc(N)c1C#N)c1nc2ccc(F)cc2c(S(C)(=O)=O)c1-c1ccccc1` [4-amino-6-(((1S)-1-(6-fluoro-4-(methylsulfonyl)-3-phenyl-2-quinolinyl)ethyl)amino)-5-pyrimidinecarbonitrile] showed a pKi of 9.13.

As to `CC(Nc1ncnc(N)c1C#N)c1nc2cccc(Cl)c2cc1-c1ccccn1` [4-amino-6-(((1S, 1R)-1-(5-chloro-3-(2-pyridinyl)-2-quinolinyl)ethyl)-amino)-5-pyrimidinecarbonitrile], the pKi is 8.80. This pKi lies 0.33 log units lower than the previous one.

In turn, `CC(Nc1ncnc(N)c1C#N)c1nc2ccc(F)cc2c(CN2CCOCC2)c1-c1ccccc1` (stereo not shown) [4-amino-6-((-1-(6-fluoro-4-(4-morpholinylmethyl)-3-phenyl-2-quinolinyl)ethyl)amino)-5-pyrimidinecarbonitrile] had a pKi of 8.88. This pKi and that of the compound before are within 0.2 log units of each other.

`C[C@H](c1nc2ccc(F)cc2cc1-c1ccccn1)n1nc(C#N)c2c(N)ncnc21` [(R)-4-amino-1-(1-(6-fluoro-3-(pyridin-2-yl)quinolin-2-yl)ethyl)-1H-pyrazolo[3,4-d]pyrimidine-3-carbonitrile] had a pKi of 6.49.
